{
  "source": "patent US20130089603A1",
  "about": "“COMPOSITIONS AND METHODS FOR TREATING OBESITY AND OBESITY-RELATED CONDITIONS” (CHELATEXX LLC, priority 2006, published 2013)",
  "key": {"pancreatic lipase": {"molecular_target": "T1, pancreatic lipase (Homo sapiens, UniProt P16233)", "T1 sequence (P16233 17-465)": "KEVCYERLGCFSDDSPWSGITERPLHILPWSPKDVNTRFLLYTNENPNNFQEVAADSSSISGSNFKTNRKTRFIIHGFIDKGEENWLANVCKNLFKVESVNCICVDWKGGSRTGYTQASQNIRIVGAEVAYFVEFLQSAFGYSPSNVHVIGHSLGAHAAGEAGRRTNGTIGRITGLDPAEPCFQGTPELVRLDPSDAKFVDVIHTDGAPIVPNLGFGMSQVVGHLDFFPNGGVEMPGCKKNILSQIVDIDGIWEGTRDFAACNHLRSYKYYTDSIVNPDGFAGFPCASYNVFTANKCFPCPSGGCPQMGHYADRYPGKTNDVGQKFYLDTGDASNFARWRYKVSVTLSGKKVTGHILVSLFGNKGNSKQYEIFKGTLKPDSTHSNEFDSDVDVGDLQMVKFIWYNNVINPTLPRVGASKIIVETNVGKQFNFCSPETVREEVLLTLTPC", "test": "in vitro testing of lipase inhibitor effectiveness in presence of activated charcoal", "format": "biochemical", "conditions": "60 mg of orlistat with simethicone and 400 mg of porous activated charcoal (not enteric-coated)", "excerpt": "While the embodiment described in the preceding paragraph has been proven effective in preventing Underwear Issues associated with lipase inhibitors, in vitro testing has shown that the effectiveness of the lipase inhibitor is decreased due to the fact that some of the lipase inhibitor is absorbed by the activated charcoal and is therefore not available for binding to pancreatic lipase. […] Rather, the pharmaceutical composition may be configured such that the lipase inhibitor and surfactant are released in the stomach, and the activated charcoal is not released until the small intestine. By doing so, the lipase inhibitor becomes irreversibly bound to the pancreatic lipase enzyme (about 25%) in the very first 10 centimeters of the small intestines (the duodenum), prior to release of the activated charcoal, thus ensuring that the activated charcoal will not interfere with the ability of the lipase inhibitor to inactivate pancreatic lipase. For this reason, the activated charcoal in some embodiments of the compositions and methods herein is enteric-coated in order to maintain the full efficacy of the lipase inhibitor. […] Therefore, by using an enteric coated porous activated charcoal, the small undigested fat, emulsified in the chyme by actions of the emulsifying agent, can be chelated by the released porous activated charcoal in the distal small bowel."}, "[1]": {"conditions": "clinical trials on over 2800 patients for one or two years; cited from earlier work"}, "[2]": {"conditions": "cited from earlier work"}, "[3]": {"conditions": "cited from earlier work", "remark": "listed apart in the source"}, "[4]": {"conditions": "cited from earlier work", "remark": "listed apart in the source"}},
  "note": "Where two headings read alike, the source gives them in different places.",
  "data": [
    {"smiles": "CCCCCCCCCCC[C@@H](C[C@@H]1OC(=O)[C@H]1CCCCCC)OC(=O)[C@H](CC(C)C)NC=O", "note": "[orlistat, tetrahydrolipstatin]", "values": [
      {"measurement": "decrease in the effectiveness of the orlistat", "setting": "pancreatic lipase", "value": 30, "unit": "%"},
      {"measurement": "Abdominal pain/discomfort (upper gastrointestinal adverse event)", "setting": "[1]", "value": 25.5, "unit": "%"},
      {"measurement": "Fatty/Oily stool (lower gastrointestinal adverse event)", "setting": "[1]", "value": 26.0, "unit": "%"},
      {"measurement": "Fecal incontinence (lower gastrointestinal adverse event)", "setting": "[1]", "value": 7.7, "unit": "%"},
      {"measurement": "Fecal urgency (lower gastrointestinal adverse event)", "setting": "[1]", "value": 22.1, "unit": "%"},
      {"measurement": "Flatus - with discharge (lower gastrointestinal adverse event)", "setting": "[1]", "value": 23.9, "unit": "%"},
      {"measurement": "Increased defecation (lower gastrointestinal adverse event)", "setting": "[1]", "value": 10.8, "unit": "%"},
      {"measurement": "Nausea (upper gastrointestinal adverse event)", "setting": "[1]", "value": 8.1, "unit": "%"},
      {"measurement": "Oily Evacuation (lower gastrointestinal adverse event)", "setting": "[1]", "value": 11.9, "unit": "%"},
      {"measurement": "Oily Spotting (lower gastrointestinal adverse event)", "setting": "[1]", "value": 26.6, "unit": "%"},
      {"measurement": "study participants with adverse events", "setting": "[2]; 60 mg of orlistat", "value": 89.1, "unit": "%"},
      {"measurement": "study participants with adverse events", "setting": "[2]; 120 mg of orlistat", "value": 91.4, "unit": "%"},
      {"measurement": "ingested fat whose digestion and absorption is prevented", "setting": "[3]; 60 mg dose of orlistat (OTC)", "value": 25, "unit": "%"},
      {"measurement": "ingested fat whose digestion and absorption is prevented", "setting": "[3]; 120 mg dose of orlistat (prescription)", "value": 30, "unit": "%"},
      {"measurement": "ingested fat whose digestion and absorption is prevented", "setting": "[3]; dose not stated", "value": "25-35%"},
      {"measurement": "individuals reporting orlistat adverse events", "setting": "[4]; normal (25 grams of fat/meal) US diet", "value": "over 90%"},
      {"measurement": "individuals reporting orlistat adverse events", "setting": "[4]; rigid low fat diet", "value": "over 50%"}
    ]}
  ]
}
